How the values were obtained:
[1] = biological target: Protein farnesyltransferase/geranylgeranyltransferase type-1 subunit alpha / Protein farnesyltransferase subunit beta (Plasmodium falciparum, UniProt Q5EI73+Q5EI74); assay: PfPFT and Rat PFT IC50 Determination; conditions: pH 7.5; 37 °C
Method: (§1) Assays for PFT activity were performed with a PFT-specific scintillation assay (SPA) kit (Amersham Biosciences, Piscataway, NJ). IC50 values were calculated using linear regression analysis of the plots of [3H] farnesyl pyrophosphate (FPP) prenylation versus concentration of compounds.

[2] = biological target: Protein farnesyltransferase/geranylgeranyltransferase type-1 subunit alpha (Rattus norvegicus, UniProt Q04631); assay: PfPFT and Rat PFT IC50 Determination
Method: as §1

Sequence of Protein farnesyltransferase/geranylgeranyltransferase type-1 subunit alpha / Protein farnesyltransferase subunit beta (Q5EI73 1-521): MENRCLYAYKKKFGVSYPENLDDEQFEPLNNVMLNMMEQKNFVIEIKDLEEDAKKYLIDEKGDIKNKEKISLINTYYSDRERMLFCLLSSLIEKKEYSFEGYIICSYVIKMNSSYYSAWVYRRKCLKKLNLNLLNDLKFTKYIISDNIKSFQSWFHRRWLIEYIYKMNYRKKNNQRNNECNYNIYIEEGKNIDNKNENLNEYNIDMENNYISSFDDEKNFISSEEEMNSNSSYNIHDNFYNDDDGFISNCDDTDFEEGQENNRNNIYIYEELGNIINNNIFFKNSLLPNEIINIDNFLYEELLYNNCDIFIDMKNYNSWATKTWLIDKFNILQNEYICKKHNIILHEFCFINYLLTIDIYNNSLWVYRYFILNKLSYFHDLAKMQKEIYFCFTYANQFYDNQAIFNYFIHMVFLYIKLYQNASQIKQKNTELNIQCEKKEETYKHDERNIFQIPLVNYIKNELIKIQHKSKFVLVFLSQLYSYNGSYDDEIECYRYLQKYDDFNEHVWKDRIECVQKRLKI
Sequence of Protein farnesyltransferase/geranylgeranyltransferase type-1 subunit alpha / Protein farnesyltransferase subunit beta (Q5EI74 1-923): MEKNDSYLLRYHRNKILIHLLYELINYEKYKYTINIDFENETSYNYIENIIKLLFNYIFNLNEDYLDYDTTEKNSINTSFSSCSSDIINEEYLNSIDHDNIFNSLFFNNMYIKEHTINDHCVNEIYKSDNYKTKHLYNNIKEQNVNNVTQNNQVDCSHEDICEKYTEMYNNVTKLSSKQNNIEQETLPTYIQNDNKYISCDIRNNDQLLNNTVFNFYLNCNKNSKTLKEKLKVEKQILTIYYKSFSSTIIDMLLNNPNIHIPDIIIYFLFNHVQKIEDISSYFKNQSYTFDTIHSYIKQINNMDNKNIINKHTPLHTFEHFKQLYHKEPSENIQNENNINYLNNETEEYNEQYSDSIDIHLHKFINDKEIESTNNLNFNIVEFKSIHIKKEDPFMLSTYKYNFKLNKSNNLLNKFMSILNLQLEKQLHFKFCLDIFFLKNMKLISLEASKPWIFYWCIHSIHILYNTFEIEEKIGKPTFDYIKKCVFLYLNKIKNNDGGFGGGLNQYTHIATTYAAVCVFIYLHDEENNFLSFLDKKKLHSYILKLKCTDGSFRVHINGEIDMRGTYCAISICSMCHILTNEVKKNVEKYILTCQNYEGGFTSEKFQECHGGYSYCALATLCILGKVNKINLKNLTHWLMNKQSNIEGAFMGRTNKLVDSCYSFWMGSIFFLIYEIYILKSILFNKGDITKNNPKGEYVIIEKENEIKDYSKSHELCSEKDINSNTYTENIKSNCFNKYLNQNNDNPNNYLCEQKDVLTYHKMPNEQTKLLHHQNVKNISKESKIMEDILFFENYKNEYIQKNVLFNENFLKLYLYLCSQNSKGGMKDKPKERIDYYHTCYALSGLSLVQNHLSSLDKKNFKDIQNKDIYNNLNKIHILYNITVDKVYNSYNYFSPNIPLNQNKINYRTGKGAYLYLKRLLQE

SMILES | IC50 [1] [nM] | IC50 [2] [nM]
[C-]#[N+]c1ccc2c(c1)CC(N(CC(=O)NC(C)(C)C)S(=O)(=O)c1cccnc1)CN2Cc1cncn1C (stereo unspecified) [N-tert-Butyl-2-[[6-isocyano-1-(3-methyl-3H-imidazol-4-ylmethyl)-1,2,3,4-tetrahydroquinolin-3-yl]-(pyridine-3-sulfonyl)amino]acetamide] | 25 | 6
[C-]#[N+]c1ccc2c(c1)CC(N(CC(=O)NC(C)(C)C)S(=O)(=O)c1ccncc1)CN2Cc1cncn1C (stereo unspecified) [N-tert-Butyl-2-[[6-isocyano-1-(3-methyl-3H-imidazol-4-ylmethyl)-1,2,3,4-tetrahydroquinolin-3-yl]-(pyridine-4-sulfonyl)amino]acetamide] | 1000 | 160
[C-]#[N+]c1ccc2c(c1)CC(N(CC(=O)NC(C)(C)C)S(=O)(=O)c1ccccn1)CN2Cc1cncn1C (stereo unspecified) [N-tert-butyl-2-({6-isocyano-1-[(1-methyl-1H-imidazol-5-yl)methyl]-1,2,3,4-tetrahydroquinolin-3-yl}(pyridine-2-)sulfonamido)acetamide] | 1.4 | 1.8
